# From PMC9960827, “Cloning and Characterization of Trypanosoma congolense and T. vivax Nucleoside Transporters Reveal the Potential of P1-Type Carriers for the Discovery of Broad-Spectrum Nucleoside-Based Therapeutics against Animal African Trypanosomiasis” (International Journal of Molecular Sciences, 2023)
# Read-outs that look alike come from different tables or passages of the source.
# What was measured:
# T. evansi = experiment: Alamar Blue (resazurin) assay, T. evansi; assay type: cell-based, Trypanosoma evansi; conditions: resazurin; read-out: T. evansi EC50
# Protocol: (§1) EC50 values were determined by plotting to an equation for a sigmoid curve with variable slope (GraphPad Prism 8). All values were the average of at least three independent determinations on different days.
# T. congolense 6C3 = experiment: microbe, parasite or virus in culture; assay type: cell-based, Trypanosoma congolense; conditions: for EC50: diminazene resistant strain, resazurin, read-out: T. congolense 6C3 EC50; for T. congolense 6C3 RF: resistance factor = EC50 (test strain)/EC50(control strain)
# Protocol: as §1
# T. vivax = tested on: T. vivax; parameters: method as in Mabille et al. [69]; conditions: added for comparison only; ref Mabille et al. [69]; cited from earlier work
# T. congolense IL3000 = experiment: Alamar Blue (resazurin) assay, T. congolense IL3000; assay type: cell-based, Trypanosoma congolense; conditions: BSF, resazurin; read-out: T. congolense IL3000 EC50
# Protocol: as §1
# L. mexicana SUPKO+TcoAT1 = experiment: microbe, parasite or virus in culture; assay type: cell-based, Leishmania mexicana; conditions: for SUPKO+TcoAT1 RF (SUPKO): Resistance Factor relative to SUPKO; for EC50: resazurin, promastigotes, read-out: SUPKO+TcoAT1 EC50
# Protocol: as §1
# L. mexicana SUPKO+TvxNT3 = experiment: microbe, parasite or virus in culture; assay type: cell-based, Leishmania mexicana; conditions: for SUPKO+TvxNT3 RF (SUPKO): Resistance Factor relative to SUPKO; for EC50: resazurin, promastigotes, read-out: SUPKO+TvxNT3 EC50
# Protocol: as §1
# L. mexicana SUPKO = experiment: microbe, parasite or virus in culture; assay type: cell-based, Leishmania mexicana; conditions: for SUPKO RF (Cas9): Resistance Factor = EC50(SUPKO)/EC50(Cas9); for EC50: resazurin, promastigotes, read-out: SUPKO EC50
# Protocol: as §1
# [1] = tested on: human embryonic kidney (HEK) cells; experiment: Resazurin toxicity assay on human embryonic kidney cells; assay type: cell-based; conditions: for SI T. congolense: selectivity index = EC50 (HEK cells)/EC50 (T. congolense); for SI T. equiperdum: selectivity index = EC50 (HEK cells)/EC50 (T. equiperdum); for SI T. evansi: selectivity index = EC50 (HEK cells)/EC50 (T. evansi)
# Protocol: as §1
# T.b.b. B48 = experiment: Alamar Blue (resazurin) assay, T. b. brucei B48; assay type: cell-based, Trypanosoma brucei brucei; conditions: multidrug-resistant strain, resazurin; read-out: T.b.b. B48 EC50
# Protocol: as §1
# T. equiperdum = experiment: Alamar Blue (resazurin) assay, T. equiperdum; assay type: cell-based, Trypanosoma equiperdum; conditions: resazurin; read-out: T. equiperdum EC50
# Protocol: as §1
# L. mexicana Cas9 = experiment: Resazurin drug sensitivity assay, LmexCas9; assay type: cell-based, Leishmania mexicana; conditions: resazurin, promastigotes; read-out: LmexCas9 EC50
# Protocol: as §1
# [2] = target: T. congolense adenosine transporter; experiment: [3H]-adenosine uptake and its inhibition in T. congolense IL3000 bloodstream forms; assay type: cell-based, Trypanosoma congolense; conditions: for Ki: 0.05 µM [3H]-adenosine, 30 s, IC50 converted to Ki, read-out: Ki on the transport of [3H]-adenosine; for ΔG0, Gibbs free energy of interaction: calculated from Km or Ki; for Ki values fold higher than those for the purines: inhibition of adenosine uptake
# Protocol: (§2) Uptake assays using radiolabeled trypanocides and/or nucleosides were carried out as described previously. Briefly, parasite cultures were harvested, washed twice in assay buffer (33 mM HEPES, 98 mM NaCl, 4.6 mM KCl, 0.5 mM CaCl2, 0.07 mM MgSO4, 5.8 mM NaH3PO4, 0.03 mM MgCl2, 23 mM NaHCO3, 14 mM D-glucose, pH 7.3), then resuspended and adjusted to a density of 1 × 10^8 cells/mL in assay buffer. The radiolabeled permeant in the presence or absence of different concentrations of potential inhibitors reconstituted in 100 μL assay buffer was deposited on top of 250 μL oil mix in microcentrifuge tubes; 1 × 10^7 parasites in 100 μL assay buffer were added to the tube and incubated for a pre-determined interval. The reaction was stopped by the addition of 1 mL of a high concentration of ice-cold unlabeled substrate in assay buffer (‘stop solution’) and centrifugation, or by immediate centrifugation at […] as appropriate. The microcentrifuge tubes were flash-frozen, and the bottom of each tube containing the cell pellet was cut off and transferred to a scintillation vial. Cell pellets were lysed in 2% SDS, after which scintillation fluid (Scintlogic U, Lablogic) was added, followed by overnight incubation in the dark. Scintillation was measured in a 300SL (Hidex) scintillation counter (Hidex). All the assays were conducted in triplicate and analysis was carried out using Microsoft Excel and GraphPad Prism. All kinetic parameters were obtained on at least 3 separate occasions.
# (§3) The dose-dependent uptake assay allowed for the affinity of nucleoside analogs to different nucleoside transporters to be determined by measuring the extent to which the analogs compete with and inhibit the uptake of radiolabel adenosine. This allowed for the determination of biochemical parameters such as Km and Vmax through the application of the Michaelis–Menten equation V0 = Vmax([substrate]/([substrate] + Km)). The 50% Inhibitory Concentration (IC50) of the purines and pyrimidines and their analogs was determined from non-linear regression to sigmoid curves with variable slope (Prism 8), and the IC50 of the inhibitor and the Km of the labeled permeant were then used to calculate the inhibition constant (Ki) of the analogs through the Cheng–Prusoff equation: Ki = IC50/(1 + (L/Km)), where L denotes the radiolabel concentration. The calculated Ki was in turn used to determine the Gibbs free energy (ΔG^0) of the inhibitor–transporter interaction using the equation: ΔG^0 = -RTln(Ki), where R represents the gas constant and T symbolizes the absolute temperature in Kelvin [104].
# TcoAT1 = assay type: cell-based, Trypanosoma congolense; conditions: for Ki: 0.05 µM [3H]-adenosine, 10 s, IC50 converted to Ki, read-out: Ki on the transport of [3H]-adenosine; for ΔG0: Gibbs free energy of binding, from Km or Ki; for δ(ΔG0): loss of Gibbs free energy of binding relative to the parent nucleoside
# Description: (§4) The information for the T. congolense adenosine transporter (TcoAT1) and four putative T. vivax nucleoside transporters was obtained in the TritrypDB (tritrypdb.org/tritrypdb) genome database. Primers were designed to flank each gene upstream of the 5′ end (forward) and downstream of the 3′ end (reverse) as described (primer sequences in Supplementary Table S2). Following amplification from the genomic DNA of T. congolense or T. vivax, DNA for each extracted gene was ligated into the pNUS-HcN expression vector doubly digested with NdeI using the NEBuilder kit according to the manufacturer’s instructions (New England Biolabs). Construct was transformed into competent E. coli cells, and ligation was confirmed by restriction enzyme digestion of isolated plasmid DNA followed by Sanger sequencing (Source BioScience, Nottingham, UK). Confirmed plasmids were then transfected into L. mexicana cell line in which both NT1 and NT2 were doubly knocked out (SUPKO) and derived from L. mexicana Cas9 [64] as described. Clones grown in medium containing 50 μg/mL neomycin (G418) were collected for further confirmation by PCR with genomic DNA using a forward primer of the transporter gene and a reverse primer of the plasmid.
# as §2, §3
# TvxNT3 = TvxNT3 (Trypanosoma vivax, UniProt F9WV62); experiment: cell-based; assay type: cell-based; conditions: for ΔG0: Gibbs free energy of interaction, from Km or Ki; for δ(ΔG0): difference in ΔG0 relative to the parent purine (adenosine or inosine)
# Description: as §4, §2, §3
# [3] = target: T. b. brucei P1 (TbP1/NT2); conditions: cited from earlier work; for Ki: T. b. brucei bloodstream forms, read-out: Tbb P1 Ki
# [4] = resazurin, 96 well plates, read-out: HEK EC50
# Chain of TvxNT3 (F9WV62 entry or part of it): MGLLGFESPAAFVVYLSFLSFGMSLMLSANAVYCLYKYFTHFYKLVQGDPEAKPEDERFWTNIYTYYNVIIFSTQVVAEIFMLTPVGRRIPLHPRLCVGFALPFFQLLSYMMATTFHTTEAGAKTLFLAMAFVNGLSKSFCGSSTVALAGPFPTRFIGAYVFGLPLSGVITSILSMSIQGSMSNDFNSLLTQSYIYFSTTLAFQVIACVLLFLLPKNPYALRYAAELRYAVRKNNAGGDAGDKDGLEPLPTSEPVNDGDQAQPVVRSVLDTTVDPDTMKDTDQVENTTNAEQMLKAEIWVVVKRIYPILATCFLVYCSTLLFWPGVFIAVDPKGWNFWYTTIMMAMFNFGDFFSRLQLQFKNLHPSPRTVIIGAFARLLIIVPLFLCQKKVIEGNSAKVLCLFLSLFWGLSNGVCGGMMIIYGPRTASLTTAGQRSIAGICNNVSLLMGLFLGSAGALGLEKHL
Structure (SMILES),EC50 (T. evansi) [µM],EC50 (T. congolense 6C3) [µM],T. congolense 6C3 RF (T. congolense 6C3),EC50 (T. vivax) [µM],EC50 (T. congolense IL3000) [µM],SUPKO+TcoAT1 RF (SUPKO) (L. mexicana SUPKO+TcoAT1),EC50 (L. mexicana SUPKO+TcoAT1) [µM],EC50 (L. mexicana SUPKO+TvxNT3) [µM],SUPKO RF (Cas9) (L. mexicana SUPKO),EC50 (L. mexicana SUPKO) [µM],"EC50 [1, 4] [µM]",SI T. congolense [1],SI T. equiperdum [1],SI T. evansi [1],EC50 (T.b.b. B48) [µM],EC50 (T. equiperdum) [µM],EC50 (L. mexicana Cas9) [µM],Ki [2] [µM],"ΔG0, Gibbs free energy of interaction [2] [kcal/mol]",Ki (TcoAT1) [µM],other results
Nc1ncnc2c1c(Cl)cn2[C@@H]1O[C@H](CO)[C@@H](O)[C@H]1O [FH3169],0.62 ± 0.06,0.75 ± 0.14,0.87,0.053 ± 0.007,0.86 ± 0.12,1.64,9.41 ± 0.56,15.9 ± 2.5,67.7,15.4 ± 2.7,4.55 ± 0.19,5.3,37,7.4,1.84 ± 0.33,0.12 ± 0.018,0.23 ± 0.005,,,,SUPKO+TvxNT3 RF (SUPKO) (L. mexicana SUPKO+TvxNT3): 0.97
Nc1ncnc2c1c(I)cn2[C@@H]1O[C@H](CO)C[C@H]1O [FH8496],0.0037 ± 0.0012,0.003 ± 0.0002,0.56,0.056 ± 0.001,0.0054 ± 0.001,>2.2,23.9 ± 5.6,40 ± 9.2,1.01,52.6,,902,3260,1340,0.024 ± 0.002,0.0015 ± 0.0005,51.8 ± 10.3,46.2 ± 1.7,-5.9,135 ± 11,SUPKO+TvxNT3 RF (SUPKO) (L. mexicana SUPKO+TvxNT3): >1.2; EC50 [1]: 4.91 ± 0.03 µM
Nc1ncnc2c1ccn2[C@H]1C[C@H](O)[C@@H](CO)O1 [FH10677],> 100,10.9 ± 2.3,0.25,> 64,43.3 ± 14.5,,,,,,> 200,>4.6,>12,,38 ± 2.3,17.4 ± 2.3,,,,,
Nc1ncnc2c1c(Br)cn2[C@H]1C[C@H](O)[C@@H](CO)O1 [FH10679],1.74 ± 0.53,0.31 ± 0.07,0.60,4.3 ± 0.9,0.51 ± 0.09,,,,,,> 200,>390,>3000,>115,1.04 ± 0.19,0.067 ± 0.013,,,,,
Nc1ncnc2c1c(Br)cn2[C@@H]1O[C@H](CO)[C@@H](O)[C@H]1O [TH1003],0.48 ± 0.06,0.52 ± 0.031,0.66,0.74 ± 0.04,0.79 ± 0.14,>1.4,71.1 ± 5,> 100,>41.2,> 100,2.37 ± 0.12,3.0,28,4.9,1.4 ± 0.09,0.085 ± 0.026,2.43 ± 0.14,,,,
Cc1cn([C@H]2C[C@H](O)[C@@H](CO)O2)c(=O)[nH]c1=O [Thymidine],,,,,,,,,,,,,,,,,,94.6 ± 11.5,-5.5,434 ± 46.4,ΔG0 (TvxNT3): -4.391 kcal/mol; δ(ΔG0) (TvxNT3): -3.587 kcal/mol; Ki values fold higher than those for the purines [2]: > 90 fold; Ki (TcoAT1; listed as TMD): 49.6 µM; ΔG0 (TcoAT1): -4.59 kcal/mol; δ(ΔG0) (TcoAT1): 4.113 kcal/mol; Ki [3]: 44 ± 10 µM
O=c1ccn([C@@H]2O[C@H](CO)[C@@H](O)[C@H]2O)c(=O)[nH]1 [Uridine],,,,,,,,,,,,,,,,,,390 ± 9.1,-4.64,1470 ± 172,ΔG0 (TvxNT3): -4.285 kcal/mol; δ(ΔG0) (TvxNT3): -3.693 kcal/mol; Ki values fold higher than those for the purines [2]: > 90 fold; Ki (TcoAT1; listed as URD): 147 µM; ΔG0 (TcoAT1): -3.87 kcal/mol; δ(ΔG0) (TcoAT1): 4.835 kcal/mol; Ki [3]: 830 ± 86 µM; Tbb P1 ΔG0 [3]: -4.47 kcal/mol
